In article PMC9356275, “A quantitative high-throughput screen identifies compounds that lower expression of the SCA2-and ALS-associated gene ATXN2” (The Journal of Biological Chemistry, 2022):
“And” between values parts separate entries of the source, which are not always exact repeats. Equal values may be shown once. Where a name gives a salt, the structure may show the parent alone. Read-outs that look alike come from different tables or passages of the source.

Key:
Type in all cases: cell-based, human
ATXN2-luc [1] = assay: NCATS qHTS (LOPAC pilot, primary and confirmation): ATXN2-luc in S2 cells, 1536-well, Steady-Glo; conditions: for Curve Class: LOPAC library (1,280 compounds) screening optimization, signed sub-classes (-1.1, -2.2, -3 ...)
Experimental: We next performed a pilot screen assay to optimize the 1536-well qHTS using S2 cells. […] Cytotoxicity was determined using a multiplexed viability assay (CellTiter-Fluor, a fluorescence-based viability assay using Gly-Phe-7-amino-4-trifluoromethylcoumarin substrate).
CellTiter-Fluor was used to determine compound effect on cell viability, and Steady-Glo was used to measure luciferase in a multiplexed assay.
The primary assay was conducted at the NCATS NIH Chemical Genomics Center laboratory. About 4 μl of S2 cell suspension in phenol red–free DMEM was dispensed into wells of 1536-well assay plates. […] Next, SteadyGlo luciferase substrate detection reagent (3 μl) was added to each well and incubated for an additional 5 min at room temperature. Luminescence was then measured on the ViewLux imager equipped with clear filters using a 2 s exposure. All screening operations were performed on a fully integrated robotic system (Kalypsys) containing one RX-130 and two RX-90 anthropomorphic robotic arms (Stäubli). Vehicle-only plates, with DMSO being pin-transferred to columns 5 to 48, were inserted uniformly at the beginning and the end of each library in order to monitor and record any shifts in assay performance.

ATXN2-luc [2] = assay: MSSR pilot screen: ATXN2-luc luciferase assay (Bright-Glo) in H2 cells, single 10 μM dose; conditions: H2 cells, single dose (title: 10 μM compound), overnight
ATXN2-luc [3] = assay: Secondary assays: ATXN2-luc in S2 and H2 cells, 12 doses, Bright-Glo; conditions: Homo sapiens; H2 and S2 values used as replicates, 24 h; read-out: IC50 for lowering ATXN2-luc
Experimental: The values for H2 and S2 were used as replicates to calculate IC50s and to assess cell viability.
Compounds were plated at 2× concentrations in phenol red–free DMEM in 25 μl in 384-well plates with each compound dose plated in triplicate. An equal volume of S2, H2, or SC cells (24,000 cells/well) suspended in phenol red–free DMEM with 10% fetal bovine serum and 1× penicillin/streptomycin were added. Cells were grown 24 h and then assayed first by using the CellTiter-Fluor reagent (20 μl) followed by the addition of Bright-Glo (65 μl) luciferase assay, using a multimode plate reader (Beckman; DT880). Values were reported as the mean ± SD with n = 3. IC50s were determined by the Hill coefficient method using an online tool (https://www.aatbio.com/tools/ic50-calculator).

[4] = LOPAC library screening optimization, curve-fit parameter
[5] = LOPAC library screening optimization, logarithm of AC50 (negative values)
[6] = LOPAC library screening optimization, read-out: AC50
[7] = Homo sapiens, LOPAC library screening optimization, logarithm of AC50 (negative values), read-out: Log AC50 (converted)
[8] = Homo sapiens, LOPAC library screening optimization, read-out: AC50

Row | SMILES | Curve Class (ATXN2-luc [1]) | Efficacy (ATXN2-luc [1]; [4]) | Hill Coef (ATXN2-luc [1]; [4]) | Inf Activity (ATXN2-luc [1]; [4]) | Zero Activity (ATXN2-luc [1]; [4]) | Log AC50 (ATXN2-luc [1]; [5]) | AC50 (ATXN2-luc [1]; [6]) [µM] | Max Resp (ATXN2-luc [1]; LOPAC library screening optimization, response at highest tested concentration) | AC50 (ATXN2-luc [1]; [7]) [µM] | AC50 (ATXN2-luc [1]; [8]) [µM] | SD from mean (ATXN2-luc, Z-score) (ATXN2-luc [2]) [SD] | IC50 (ATXN2-luc [3]) [µM]
1 | CNCC[C@H](Oc1ccc(C(F)(F)F)cc1)c1ccccc1.Cl [MLS002153300-01] | -2.2 | -72.8775 | 2.1211 | -81.66 | -8.7824 | -4.45 | 35.5 | -62.2424 |  |  |  | 
2 | Oc1ccc2c3c1O[C@H]1c4[nH]c5ccccc5c4C[C@@]4(O)[C@@H](C2)N(CC2CC2)CC[C@]314 [Naltrindole hydrochloride] | -2.2 |  |  |  |  | -4.75 | 17.8 |  | 14.1 | 14.1 |  | 
3 | CNCCCC1c2ccccc2C=Cc2ccccc21 [Protriptyline hydrochloride] |  | -59.559 |  | -66.4303 |  |  |  |  | 31.6 | 31.6 |  | 
4 | C=C[C@H]1C[N@@]2CC[C@H]1C[C@H]2[C@H](O)c1ccnc2ccc(OC)cc12 [Quinine sulfate] |  | -70.489 |  | -66.665 |  |  |  |  | 35.5 | 35.5 |  | 
5 | CC(C)NC[C@@H](O)c1ccc(O)c(O)c1 [S(+)-Isoproterenol (+)-bitartrate] |  | -77.2877 |  | -79.7998 |  |  |  |  | 31.6 | 31.6 |  | 
6 | CNCC[C@H](Oc1ccc(C(F)(F)F)cc1)c1ccccc1 [S-(+)-Fluoxetine hydrochloride] | -2.2 |  |  |  |  | -4.8 | 15.8 |  | 14.1 | 14.1 |  | 
7 | C[C@@H]1O[C@@H](O[C@H]2C[C@@H](O)[C@]3(CO)[C@@H]4[C@@H](O)C[C@]5(C)[C@H](C6=CC(=O)OC6)CC[C@@]5(O)[C@H]4CC[C@@]3(O)C2)[C@H](O)[C@H](O)[C@@H]1O.O.O.O.O.O.O.O.O [Strophantine octahydrate] |  | -95.9071 |  | -89.7119 |  |  |  |  | 0.0891 | 0.0891 | -3.624 | 
8 | Nc1nc(=S)c2ncn([C@@H]3O[C@H](CO)[C@@H](O)[C@H]3O)c2[nH]1 [Thioguanosine] |  | -64.1845 |  | -62.8466 |  |  |  |  | 3.55 | 3.55 |  | 
9 | CNCC[C@@H](Oc1ccccc1C)c1ccccc1 [Tomoxetine] | -2.2 | -86.2041 |  | -86.6862 |  |  |  |  | 28.2 | 28.2 |  | 
10 | C[C@H](N)CN1CCc2ccc(Br)cc21 [VER-3323 hemifumarate salt] | -2.2 |  |  |  |  | -4.8 | 15.8 |  | 11.2 | 11.2 |  | 
11 | C[C@@H]1O[C@@H](O[C@H]2C[C@@H](O)[C@]3(CO)[C@H]4[C@H](O)C[C@]5(C)[C@@H]([C@H]6COC(=O)C6)CC[C@]5(O)[C@@H]4CC[C@]3(O)C2)[C@H](O)[C@H](O)[C@H]1O [dihydroouabain] |  |  | 3.0654 and 2.7202 and 1.8851 and 1.6604 |  |  |  |  |  |  |  |  | 
12 | CC(C)c1cc(-c2n[nH]c(=O)n2-c2ccc3c(ccn3C)c2)c(O)cc1O [ganetespib] |  |  |  |  |  |  |  |  |  |  |  | 0.03
